Laboratory results from ChEMBL document CHEMBL2069251, “Synthesis and antifungal activity of 1-thia-4b-aza-cyclopenta[b]fluorene-4,10-diones” (2012).
Converted amounts (≈) assume the structure as drawn.

Tests used:
Assay type in all cases: functional
Candida albicans = experiment: Antifungal activity against Candida albicans Berkout KCCM 50235 after 1 day by twofold broth dilution method; settings: Berkout KCCM 50235, 24 h
Candida tropicalis = experiment: Antifungal activity against Candida tropicalis Berkout KCCM 50662 after 1 day by twofold broth dilution method; settings: Berkout KCCM 50662, 24 h
Pichia kudriavzevii = experiment: Antifungal activity against Candida krusei Berkout KCCM 11655 after 1 day by twofold broth dilution method; settings: Berkout KCCM 11655, 24 h
Cryptococcus neoformans = experiment: Antifungal activity against Cryptococcus neoformans KCCM 50564 after 1 day by twofold broth dilution method; settings: KCCM 50564, 24 h
Aspergillus niger = experiment: Antifungal activity against Aspergillus niger KCTC 1231 after 2 days by twofold broth dilution method; settings: KCTC 1231, 48 h
Aspergillus flavus = experiment: Antifungal activity against Aspergillus flavus KCCM 11899 after 2 days by twofold broth dilution method; settings: KCCM 11899, 48 h

COC(=O)c1cc2c(s1)C(=O)c1c(C(C)=O)c3cc(Cl)ccn3c1C2=O
MIC (Candida albicans): 50 µg/mL (≈ 129 µM)
MIC (Candida tropicalis): 25 µg/mL (≈ 64.5 µM)
MIC (Pichia kudriavzevii): 50 µg/mL (≈ 129 µM)
MIC (Cryptococcus neoformans): 12.5 µg/mL (≈ 32.2 µM)
MIC (Aspergillus niger): 6.3 µg/mL (≈ 16.2 µM)
MIC (Aspergillus flavus): 12.5 µg/mL (≈ 32.2 µM)

COC(=O)c1cc2c(s1)C(=O)c1c(C(C)=O)c3ccc(C)cn3c1C2=O
MIC (Candida albicans): 12.5 µg/mL (≈ 34 µM)
MIC (Candida tropicalis): 25 µg/mL (≈ 68 µM)
MIC (Pichia kudriavzevii): 50 µg/mL (≈ 136 µM)
MIC (Cryptococcus neoformans): 12.5 µg/mL (≈ 34 µM)
MIC (Aspergillus niger): 6.3 µg/mL (≈ 17.1 µM)
MIC (Aspergillus flavus): 12.5 µg/mL (≈ 34 µM)

CCc1ccc2c(C(C)=O)c3c(n2c1)C(=O)c1cc(C(=O)OC)sc1C3=O
MIC (Candida albicans): 12.5 µg/mL (≈ 32.8 µM)
MIC (Candida tropicalis): 50 µg/mL (≈ 131 µM)
MIC (Pichia kudriavzevii): 50 µg/mL (≈ 131 µM)
MIC (Cryptococcus neoformans): 6.3 µg/mL (≈ 16.5 µM)
MIC (Aspergillus niger): 12.5 µg/mL (≈ 32.8 µM)
MIC (Aspergillus flavus): 6.3 µg/mL (≈ 16.5 µM)

COC(=O)c1cc2c(s1)C(=O)c1c(C(C)=O)c3cc(C#N)ccn3c1C2=O
MIC (Candida albicans): 25 µg/mL (≈ 66.1 µM)
MIC (Candida tropicalis): 25 µg/mL (≈ 66.1 µM)
MIC (Pichia kudriavzevii): 25 µg/mL (≈ 66.1 µM)
MIC (Cryptococcus neoformans): 6.3 µg/mL (≈ 16.7 µM)
MIC (Aspergillus niger): 12.5 µg/mL (≈ 33 µM)
MIC (Aspergillus flavus): 12.5 µg/mL (≈ 33 µM)

COC(=O)c1cc2c(s1)C(=O)c1c(C(C)=O)c3ccc(F)cn3c1C2=O
MIC (Candida albicans): 50 µg/mL (≈ 135 µM)
MIC (Candida tropicalis): 25 µg/mL (≈ 67.3 µM)
MIC (Pichia kudriavzevii): 25 µg/mL (≈ 67.3 µM)
MIC (Cryptococcus neoformans): 50 µg/mL (≈ 135 µM)
MIC (Aspergillus niger): 50 µg/mL (≈ 135 µM)
MIC (Aspergillus flavus): 50 µg/mL (≈ 135 µM)

COC(=O)c1cc2c(s1)C(=O)c1c(C(C)=O)c3ccc(Cl)cn3c1C2=O
MIC (Candida albicans): 12.5 µg/mL (≈ 32.2 µM)
MIC (Candida tropicalis): 3.2 µg/mL (≈ 8.25 µM)
MIC (Pichia kudriavzevii): 6.3 µg/mL (≈ 16.2 µM)
MIC (Cryptococcus neoformans): 3.2 µg/mL (≈ 8.25 µM)
MIC (Aspergillus niger): 12.5 µg/mL (≈ 32.2 µM)
MIC (Aspergillus flavus): 25 µg/mL (≈ 64.5 µM)

COC(=O)c1cc2c(s1)C(=O)c1c(C(C)=O)c3ccc(Br)cn3c1C2=O
MIC (Candida albicans): 6.3 µg/mL (≈ 14.6 µM)
MIC (Candida tropicalis): 12.5 µg/mL (≈ 28.9 µM)
MIC (Pichia kudriavzevii): 6.3 µg/mL (≈ 14.6 µM)
MIC (Cryptococcus neoformans): 1.6 µg/mL (≈ 3.7 µM)
MIC (Aspergillus niger): 6.3 µg/mL (≈ 14.6 µM)
MIC (Aspergillus flavus): 12.5 µg/mL (≈ 28.9 µM)

COC(=O)c1cc2c(s1)C(=O)c1c(C(=O)OC)c3ccccn3c1C2=O
MIC (Candida albicans): 50 µg/mL (≈ 135 µM)
MIC (Candida tropicalis): 25 µg/mL (≈ 67.7 µM)
MIC (Pichia kudriavzevii): 50 µg/mL (≈ 135 µM)
MIC (Cryptococcus neoformans): 12.5 µg/mL (≈ 33.8 µM)
MIC (Aspergillus niger): 25 µg/mL (≈ 67.7 µM)
MIC (Aspergillus flavus): 12.5 µg/mL (≈ 33.8 µM)

CCOC(=O)c1c2c(n3ccccc13)C(=O)c1cc(C(=O)OC)sc1C2=O
MIC (Candida albicans): 50 µg/mL (≈ 130 µM)
MIC (Candida tropicalis): 12.5 µg/mL (≈ 32.6 µM)
MIC (Pichia kudriavzevii): 12.5 µg/mL (≈ 32.6 µM)
MIC (Cryptococcus neoformans): 50 µg/mL (≈ 130 µM)
MIC (Aspergillus niger): 12.5 µg/mL (≈ 32.6 µM)
MIC (Aspergillus flavus): 50 µg/mL (≈ 130 µM)

CCOC(=O)c1c2c(n3cc(C)ccc13)C(=O)c1cc(C(=O)OC)sc1C2=O
MIC (Candida albicans): 25 µg/mL (≈ 62.9 µM)
MIC (Candida tropicalis): 12.5 µg/mL (≈ 31.5 µM)
MIC (Pichia kudriavzevii): 25 µg/mL (≈ 62.9 µM)
MIC (Cryptococcus neoformans): 12.5 µg/mL (≈ 31.5 µM)
MIC (Aspergillus niger): 25 µg/mL (≈ 62.9 µM)
MIC (Aspergillus flavus): 6.3 µg/mL (≈ 15.9 µM)

CCOC(=O)c1c2c(n3ccc(OC)cc13)C(=O)c1cc(C(=O)OC)sc1C2=O
MIC (Candida albicans): 50 µg/mL (≈ 121 µM)
MIC (Candida tropicalis): 50 µg/mL (≈ 121 µM)
MIC (Pichia kudriavzevii): 100 µg/mL (≈ 242 µM)
MIC (Cryptococcus neoformans): 50 µg/mL (≈ 121 µM)
MIC (Aspergillus niger): 100 µg/mL (≈ 242 µM)
MIC (Aspergillus flavus): 50 µg/mL (≈ 121 µM)

CCOC(=O)c1c2c(n3ccc(C#N)cc13)C(=O)c1cc(C(=O)OC)sc1C2=O
MIC (Candida albicans): 12.5 µg/mL (≈ 30.6 µM)
MIC (Candida tropicalis): 12.5 µg/mL (≈ 30.6 µM)
MIC (Pichia kudriavzevii): 50 µg/mL (≈ 122 µM)
MIC (Cryptococcus neoformans): 25 µg/mL (≈ 61.2 µM)
MIC (Aspergillus niger): 3.2 µg/mL (≈ 7.84 µM)
MIC (Aspergillus flavus): 50 µg/mL (≈ 122 µM)

CCOC(=O)c1c2c(n3cc(F)ccc13)C(=O)c1cc(C(=O)OC)sc1C2=O
MIC (Candida albicans): 6.3 µg/mL (≈ 15.7 µM)
MIC (Candida tropicalis): 50 µg/mL (≈ 125 µM)
MIC (Pichia kudriavzevii): 12.5 µg/mL (≈ 31.1 µM)
MIC (Cryptococcus neoformans): 12.5 µg/mL (≈ 31.1 µM)
MIC (Aspergillus niger): 50 µg/mL (≈ 125 µM)
MIC (Aspergillus flavus): 12.5 µg/mL (≈ 31.1 µM)

CCOC(=O)c1c2c(n3cc(Cl)ccc13)C(=O)c1cc(C(=O)OC)sc1C2=O
MIC (Candida albicans): 6.3 µg/mL (≈ 15.1 µM)
MIC (Candida tropicalis): 6.3 µg/mL (≈ 15.1 µM)
MIC (Pichia kudriavzevii): 6.3 µg/mL (≈ 15.1 µM)
MIC (Cryptococcus neoformans): 25 µg/mL (≈ 59.8 µM)
MIC (Aspergillus niger): 6.3 µg/mL (≈ 15.1 µM)
MIC (Aspergillus flavus): 25 µg/mL (≈ 59.8 µM)

CCOC(=O)c1c2c(n3cc(Br)ccc13)C(=O)c1cc(C(=O)OC)sc1C2=O
MIC (Candida albicans): 3.2 µg/mL (≈ 6.92 µM)
MIC (Candida tropicalis): 1.6 µg/mL (≈ 3.46 µM)
MIC (Pichia kudriavzevii): 12.5 µg/mL (≈ 27 µM)
MIC (Cryptococcus neoformans): 1.6 µg/mL (≈ 3.46 µM)
MIC (Aspergillus niger): 3.2 µg/mL (≈ 6.92 µM)
MIC (Aspergillus flavus): 1.6 µg/mL (≈ 3.46 µM)

COC(=O)c1cc2c(OC)ccc(OC)c2s1
MIC (Candida albicans): 100 µg/mL (≈ 396 µM)
MIC (Candida tropicalis): > 100 µg/mL
MIC (Pichia kudriavzevii): 50 µg/mL (≈ 198 µM)
MIC (Cryptococcus neoformans): > 100 µg/mL
MIC (Aspergillus niger): 100 µg/mL (≈ 396 µM)
MIC (Aspergillus flavus): 100 µg/mL (≈ 396 µM)

COC(=O)c1cc2c(s1)C(=O)C(Cl)=C([n+]1ccc(Cl)cc1)C2=O.[Cl-]
MIC (Candida albicans): 12.5 µg/mL
MIC (Candida tropicalis): 25 µg/mL
MIC (Pichia kudriavzevii): 50 µg/mL
MIC (Cryptococcus neoformans): 12.5 µg/mL
MIC (Aspergillus niger): 3.2 µg/mL
MIC (Aspergillus flavus): 12.5 µg/mL

COC(=O)c1cc2c(s1)C(=O)C(Cl)=C([n+]1ccc(C#N)cc1)C2=O.[Cl-]
MIC (Candida albicans): 25 µg/mL
MIC (Candida tropicalis): 50 µg/mL
MIC (Pichia kudriavzevii): 50 µg/mL
MIC (Cryptococcus neoformans): 6.3 µg/mL
MIC (Aspergillus niger): 3.2 µg/mL
MIC (Aspergillus flavus): 6.3 µg/mL

CCc1ccc[n+](C2=C(Cl)C(=O)c3sc(C(=O)OC)cc3C2=O)c1.[Cl-]
MIC (Candida albicans): 50 µg/mL
MIC (Candida tropicalis): 25 µg/mL
MIC (Pichia kudriavzevii): 50 µg/mL
MIC (Cryptococcus neoformans): 12.5 µg/mL
MIC (Aspergillus niger): 6.3 µg/mL
MIC (Aspergillus flavus): 12.5 µg/mL

COC(=O)c1cc2c(s1)C(=O)C(Cl)=C([n+]1ccc(OC)cc1)C2=O.[Cl-]
MIC (Candida albicans): 100 µg/mL
MIC (Candida tropicalis): 50 µg/mL
MIC (Pichia kudriavzevii): 50 µg/mL
MIC (Cryptococcus neoformans): 50 µg/mL
MIC (Aspergillus niger): 100 µg/mL
MIC (Aspergillus flavus): 50 µg/mL

COC(=O)c1cc2c(s1)C(=O)C(Cl)=C([n+]1cccc(Cl)c1)C2=O.[Cl-]
MIC (Candida albicans): 3.2 µg/mL
MIC (Candida tropicalis): 1.6 µg/mL
MIC (Pichia kudriavzevii): 3.2 µg/mL
MIC (Cryptococcus neoformans): 50 µg/mL
MIC (Aspergillus niger): 3.2 µg/mL
MIC (Aspergillus flavus): 3.2 µg/mL

COC(=O)c1cc2c(s1)C(=O)C(Cl)=C([n+]1cccc(Br)c1)C2=O.[Cl-]
MIC (Candida albicans): 50 µg/mL
MIC (Candida tropicalis): 50 µg/mL
MIC (Pichia kudriavzevii): 25 µg/mL
MIC (Cryptococcus neoformans): 50 µg/mL
MIC (Aspergillus niger): 12.5 µg/mL
MIC (Aspergillus flavus): 50 µg/mL

OC(Cn1cncn1)(Cn1cncn1)c1ccc(F)cc1F [FLUCONAZOLE]
MIC (Candida albicans): 50 µg/mL (≈ 163 µM)
MIC (Candida tropicalis): 3.2 µg/mL (≈ 10.4 µM)
MIC (Pichia kudriavzevii): 25 µg/mL (≈ 81.6 µM)
MIC (Cryptococcus neoformans): 6.3 µg/mL (≈ 20.6 µM)
MIC (Aspergillus niger): 6.3 µg/mL (≈ 20.6 µM)
MIC (Aspergillus flavus): 25 µg/mL (≈ 81.6 µM)

Nc1nc(=O)[nH]cc1F [FLUCYTOSINE]
MIC (Candida albicans): 3.2 µg/mL (≈ 24.8 µM)
MIC (Candida tropicalis): 6.3 µg/mL (≈ 48.8 µM)
MIC (Pichia kudriavzevii): 6.3 µg/mL (≈ 48.8 µM)
MIC (Cryptococcus neoformans): 6.3 µg/mL (≈ 48.8 µM)
MIC (Aspergillus niger): 6.3 µg/mL (≈ 48.8 µM)
MIC (Aspergillus flavus): 25 µg/mL (≈ 194 µM)
